Here are results for three compounds from US6407064B2, “Aminoalcohol derivative and medicament comprising the same” (Seikagaku Corporation, priority 1999, dated 2002).

The subject of test [1] is GSLs which are produced starting with glucosylceramide. Conditions: J. Lipid Res. 28: 565-571 (1987); cited from earlier work.
Test [2] concerns neurite. As to conditions: literature; cited from earlier work.
The target in test [3] is T1, enzyme for glucosylceramide biosynthesis (Homo sapiens, UniProt Q16739).
T1 sequence (Q16739 1-394): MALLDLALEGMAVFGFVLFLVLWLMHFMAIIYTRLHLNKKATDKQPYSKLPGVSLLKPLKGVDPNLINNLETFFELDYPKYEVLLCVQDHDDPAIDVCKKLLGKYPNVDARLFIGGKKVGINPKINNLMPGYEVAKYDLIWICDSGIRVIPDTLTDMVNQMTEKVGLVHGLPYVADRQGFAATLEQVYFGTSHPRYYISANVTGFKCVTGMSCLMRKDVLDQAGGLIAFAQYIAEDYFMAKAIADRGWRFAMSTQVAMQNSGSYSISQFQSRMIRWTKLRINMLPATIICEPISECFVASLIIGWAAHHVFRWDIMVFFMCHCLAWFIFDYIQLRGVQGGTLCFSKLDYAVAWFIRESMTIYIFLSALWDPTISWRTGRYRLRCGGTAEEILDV
As to conditions: J. Lipid Res. 28: 565-571 (1987); cited from earlier work.

In test [4] the test system is synaptic function. Conditions: Biochem. Biophys. Res. Commun. 222: 494-498 (1996); cited from earlier work.
In test [5] the test system is enzyme for ganglioside GM3 synthesis, mouse B16 melanoma cell. Put plainly: Activity of enzyme for ganglioside GM3 synthesis (14C-Gal incorporated in total lipid fraction). As to conditions: relative value, control regarded as 100; test compound 24 μM, 24 hours; 14C-Gal incorporation. The class given is cell-based. On the procedure: The gangliosides produced by mouse B16 melanoma cell are almost composed of ganglioside GM3. Therefore, the activity of the enzyme for ganglioside GM3 synthesis can be determined conveniently by measuring the amount of ^14C-Gal incorporated in a total lipid-extracted fraction through a liquid layer partition method.
(§1) A liquid where the cells of mouse B16 melanoma were suspended was prepared with Dulbecco modified Eagle's medium containing 10% bovine fetal serum, inoculated into a 12-well plate in an amount of 2.0×10^5 cells/ml/well, and cultured in 5% CO2 incubator at 37° C. The treatment with a test compound (24 μM) and the addition of ^14C-Gal (22.2 kBq/11.7 nmol/6 μl/well) were started through the exchange of total amount of the medium 24 hours after the culture was started. Twenty-four hours after the treatment with the test compound was started, the culture mixture was treated with PBS containing 0.02% EDTA and PBS containing 0.25% trypsin successively to recover the cells.
Then, a mixed solvent of chloroform:methanol=2:1 (3 ml) was added to the cell pellet and, after the subjection to an ultrasonication for 30 minutes, the supernatant was recovered. Furthermore, a mixed solvent of chloroform:methanol=1:1 (3 ml) was added to the residual pellet after the recovery of the supernatant, and a similar operation was carried out. The resulting supernatant was combined with the first supernatant and the whole was evaporated to dryness under a nitrogen stream. A desalinated water (1.0 ml) was added to the total lipid-extracted fraction. After having been subjected to an ultrasonication for 1 minute, the mixture was transferred into a dialysis tube and dialyzed against water for 2 days. The sample after the dialysis was transferred into a vial for liquid scintillation counter and, after the addition of scintillator, the activity of incorporating ^14C-Gal was measured on scintillation counter.
The values of activity of the compounds of the present invention are shown as relative values obtained by calculation on the basis that the value of a control (a group where no test compound was added) is regarded as 100 in Table 3 below.

The subject of test [6] is ganglioside GM3, mouse B16 melanoma cells. Put plainly: Synthesized amount of ganglioside GM3 (HPTLC densitometry). The class given is cell-based. Conditions: relative value, control regarded as 100, test compound 25 μM, 24 hours. Here is the method:
as §1, with “culture flask (175 cm^2)” for “12-well plate”, “0.8×10^7 cells/20 ml,” for “2.0×10^5 cells/ml/well,”, “(25” for “(24”, “was” for “and the addition of ^14C-Gal (22.2 kBq/11.7 nmol/6 μl/well) were”, “three fourths” for “total amount”
Then, a mixed solvent of chloroform:methanol=2:1 (4 ml) was added to the cell pellet and, after the subjection to an ultrasonication for 30 minutes, the cell pellet solution was allowed to stand at room temperature for a night and the supernatant was recovered. Furthermore, a mixed solvent of chloroform:methanol=1:1 (4 ml) was added to the residual pellet after the recovery of the supernatant, and a similar operation was carried out. The resulting supernatant was combined with the first supernatant and the whole was evaporated to dryness under a nitrogen stream. To the total lipid fraction was added a 0.1 N methanolic sodium hydroxide solution (2.0 ml) and the mixture was allowed to stand at 40° C. for 2 hours. Thereafter, 1 N hydrochloric acid (0.2 ml) was added thereto and the mixture was allowed to stand for 1.5 hours.
Then, the mixture was washed with n-hexane (2 ml×2) and, after the lower layer thus washed was evaporated to dryness under a nitrogen stream, the residue was desalinated by gel filtration chromatography (Sephadex LH-20 (manufactured by Amersham Pharmacia Biotech), diameter of 10 mm, height of 120 mm) using chloroform:methanol=2:1 as the eluting solvent. […] After orcinol-sulfuric acid reagent had been sprayed on the plate, it was heated at 110° C. for 5 minutes and colored spot of ganglioside GM3 was quantitatively determined by means of densitometer (a measuring wavelength of 505 nm). […]

Test [7] relates to cultured neurocytes of rat fetal cerebral cortex. Put plainly: Activity of accelerating synapse formation (intracellular calcium ion level, fura-2). The class given is cell-based. Conditions: relative value, L-PDMP regarded as 100; compound 20 μM; assay on 10th day of culture. On the procedure: The activity of accelerating synapse formation was determined by measuring change of an intracellular calcium ion level resulted from the synchronized spontaneous ignition of neurocytes which is considered to show synapse activities by means of an intracellular calcium ion multipoint observation system using a calcium ion fluorescence indicator, fura-2.
Concretely, rat fetuses at the 18th day of pregnancy were taken out from Wistar rats (available from Japan SLC), and cerebral cortices of the fetuses were taken out and cut into small pieces. After having been treated with papain (manufactured by Worthington Biochemical) at 37° C. for 30 minutes, the pieces were suspended into a Dulbecco modified Eagle's medium containing 5% bovine neonatal serum and 5% equine serum and the cortices were dissociated into single cells with Cell Striner (70 μm, Falcon). Then, the cells were inoculated into a flexiperm plate coated with 0.5% polyethyleneimine (1.0×10^6 cells/500 μl/well), and was cultured in 7% CO2 incubator at 37° C. The medium was exchanged on 2nd, 5th, and 8th days after the culture had been started. The activity of the compound of the present invention was measured using the primary culture. The compound was added at the time when the medium was exchanged and the concentration of the compound was maintained to be 20 μM. Assay was carried out on 10th day after the culture had been started.
(2) Measurement of Activity of Accelerating Synapse Formation
Concretely, after the medium of each well where cells were cultured was substituted with basic salt solution (BSS), 3 μl of a DMSO solution (1 mg/ml) of a calcium ion fluorescence indicator fura-2 was added, and the whole was kept at 37° C. for 1 hour.
In general terms: A change in cytosolic calcium serves as a functional read-out for many receptors and channels.

For `CCCCCCCCCC(=O)N[C@H](CN1CCOCC1)[C@H](O)c1ccccc1` [D-threo-PDMP, D-threo-1-phenyl-2-decanoylamino-3-morpholino-1-propanol], the “intracellular content of GSLs” value in test [1] is reported as “remarkably reduces intracellular content of all GSLs”. For the same compound, in test [2], the “effect on neurite extension” value is given as “suppresses the extension of neurite”. Moreover, the “effect on enzyme for glucosylceramide biosynthesis” value in test [3] was “specifically inhibits”. Besides, the “effect on synaptic function” value in test [4] is “suppresses synaptic function”.
On to `O=C(O)CCCCCCCCC(=O)N[C@@H](CN1CCOCC1)[C@@H](O)c1ccccc1` [Example 25, (1S,2S)-2-(9-carboxynonanoyl)amino-3-morpholino-1-phenyl-1-propanol], for which the “Activity of accelerating glycolipid biosynthesis (Test Example 2)” value in test [5] was 89.2. Also, in test [6], the “Glycolipid content (Test Example 3)” value stood at 114.5.
Regarding `CCCCOC(=O)CCC(=O)N[C@@H](CN1CCOCC1)[C@@H](O)c1ccccc1` [Example 5, (1S,2S)-2-(n-butoxy)butanedioylamino-3-morpholino-1-phenyl-1-propanol], the “Activity of accelerating glycolipid biosynthesis (Test Example 2)” value in test [5] worked out at 122.3. Further, the “Glycolipid content (Test Example 3)” value in test [6] came out at 131.2. In addition, the “Activity of synapse formation” value in test [7] stood at 92.5.
